Experimental data published in patent US20130123358A1, “Metabolic Benefits to Butyrate as a Chronic Diet Supplement” (priority 2009, published 2013).

Assays:
[1] = tested on: C57BL/6J mice on high fat diet; assay: Systemic insulin sensitivity (fasting glucose, insulin, ITT, HOMA-IR) in HFD mice; assay type: in vivo, mouse; conditions: butyrate 5% w/w in HFD
Experimental: ITT was conducted by intra-peritoneal (i.p.) injection of insulin (I9278, Sigma) at 0.75 U/kg body weight in mice after a 4 hour fast as previously described (15). Blood glucose was monitored in the tail vein blood using the FreeStyle blood glucose monitoring system (TheraSense, Phoenix, Ariz.).
To test this possibility, systemic insulin sensitivity was analyzed using fasting glucose, insulin, and insulin tolerance.
Tail vein blood was used for the glucose assay after 16 hr fasting during the period of HFD feeding. […] The insulin was determined at 16 weeks on HFD in fasting condition with Lincoplex kit (#MADPK-71k-03, Linco Research Inc., St. Charles, Mo.). […] ITT was done at 12 weeks on HFD (at 16 weeks of age). In FIGS. 2A-2C, data are presented as means±SE (N=9). *P<0.05, **P<0.001 by Student's t test. […] After an overnight fast, blood glucose and insulin were measured and used to determine insulin sensitivity through HOMA IR (IR=fasting insulin […] X fasting glucose mg/dL÷405). Values are the means±SE (N=8 mice). ** P<0.001. […] The gastrocnemius muscle was isolated after insulin (0.75 U/kg) injection in mice for 30 min and used to prepare the whole cell lysate for an immunoblot. The mice on HFD for 13 weeks were used in the signaling assay. FIG. 2F illustrates the degree of the blot signal in the panel 2E, by quantifying the signal and normalizing with protein loading. **P<0.001 (n=2).

[2] = tested on: C57BL/6J mice on high fat diet; assay: Body temperature in cold response (4° C.); assay type: in vivo, mouse; conditions: butyrate 5% w/w in HFD 10 weeks, ambient 4° C.
Experimental: Body temperature was measured in the cold room with ambient temperature at 4° C. Animals were sedated and restrained for less than 30 sec in the measurement. A Thermalert model TH-8 temperature monitor (Physitemp, Clifton, N.J.) was used with probe placed in the rectum at 2.5 cm in depth.
The association of increased food intake with elevated energy expenditure implicated a role of brown adipose tissue, which is responsible for adaptive thermogenesis in response to diet or cold (20-22). Diet-induced thermogenesis reduces obesity in both humans and animals (23). […] To determine the thermogenic function, a cold-response experiment was conducted by exposing the mice to a cold environment with an ambient temperature of 4° C. for 90 min. The mice had been on HFD for 10 weeks. The body core temperature was monitored three times during exposure by measuring the rectal temperature. In the control mice, the body temperature decreased with time and was 34.5° C. after 90 min in the cold (FIG. 4A). In the butyrate-treated mice, the body temperature dropped to 35° C. transiently at 30 minutes, and then returned to 36° C. for the rest of time.

islet cells = conditions: isolated rat islet cells; cited from earlier work
pigs = conditions: dietary; cited from earlier work
[3] = tested on: skeletal muscle mitochondrial function; assay: Fatty acid oxidation and gene expression in skeletal muscle; assay type: in vivo, mouse; conditions: butyrate 5% w/w in HFD 13 weeks
Experimental: Total RNA was extracted from frozen tissues (kept at −80° C.) using Tri-Reagent (T9424, Sigma) as described elsewhere (16). Taqman RT-PCR primer and probe were used to determine mRNA for PGC-1α (Mm00447183_m1), UCP-1 (Mm00494069_m1), PPARδ (Mm01305434_m1) and CPT1b (Mm00487200_m1). The reagents were purchased from Applied Biosystems (Foster City, Calif.). Mouse ribosome 18S rRNA_s1 (without intron-exon junction) was used as an internal control. Reaction was conducted with 7900 HT Fast real time PCR System (Applied Biosystems, Foster City, Calif.).
Mitochondrial function was examined in the skeletal muscle tissue and L6 muscle cells under butyrate treatment. Fatty acid oxidation was monitored in the […] with ^14C-labeled palmitic acid.
Vastus laterais muscle and blood samples were collected from mice at 13 weeks on HFD (18 weeks in age) and examined for fatty acid oxidation, gene expression, and blood lipids. FIG. 7A illustrates the fatty acid oxidation in muscle, measured as a fold change in ^14C-labeled CO2.
In addition, relative fold change in mRNA was used to indicate gene expression of PGC-1α target genes, such as CPT-1b (carnitine palmitoyltransferase-1b) and COX-I (cytochrome c oxidase I), and of the nuclear receptor PPARδ. In FIG. 7C, mitochondrial DNA of COX I was determined by Sybr green RT-PCR. The fatty acid oxidation was associated with expression of PGC-1α target genes, such as CPT-1b (carnitine palmitoyltransferase-1b) and COX-I (cytochrome c oxidase I) (9). Expression of these two genes was increased in the skeletal muscle of butyrate-treated mice (FIGS. 7B and 7C). The nuclear receptor PPARδ promotes fatty acids oxidation in skeletal muscle (29).

liver cells = conditions: isolated rat liver; cited from earlier work
L6 muscle cells = assay: Immunoblot of L6 myotubes; assay type: cell-based; conditions: 500 μM sodium butyrate, 4 hours
Experimental: To further test the effect of butyrate on muscle, AMPK and PGC-1α were assayed in L6 muscle cells treated with butyrate. Differentiated L6 myotubes were starved in 0.25% BSA DMEM for overnight. The cells were treated with 500 μM of sodium butyrate for 4 hours and analyzed in an immunoblot. […] In the same culture, the PGC-1α protein was increased (FIG. 6A).

SMILES: CCCC(=O)[O-].[Na+] [sodium butyrate]
- insulin tolerance test (ITT) response ([1]; 12 weeks, insulin 0.75 U/kg i.p., 30, 60, 120 and 180 min): much better response to insulin at all time points
- fasting insulin, lower than control ([1]; 16 weeks on HFD): 50%
- fasting glucose (HFD-induced increase) ([1]; after 10 weeks, 16 hr fasting): this increase was not observed
- HOMA-IR, lower than control ([1]; overnight fast): 60%
- body temperature (rectal) at 30 minutes in the cold [2]: 35 °C
- body temperature (rectal) for the rest of time in the cold ([2]; up to 90 min): 36 °C
- cell viability (islet cells) (islet cells): decrease
- insulin release in the presence of glucose (islet cells) (islet cells): decrease
- daily body mass gain (pigs): increase
- fatty acid oxidation in muscle, increase in 14C-labeled CO2 ([3]; 14C-labeled palmitic acid): 200%
- CPT-1b expression in skeletal muscle ([3]; mRNA): increased
- PPARδ expression in skeletal muscle ([3]; mRNA): also increased
- COX-I expression in skeletal muscle ([3]; mitochondrial DNA by Sybr green RT-PCR): increased
- energy metabolism (liver cells) (liver cells): impairment
- AMPK phosphorylation (L6 muscle cells): increased
- PGC-1α protein (L6 muscle cells): increased
- p38 phosphorylation (L6 muscle cells): increased
